Experimental data taken from ChEMBL document CHEMBL5108025, “New thiazole-based derivatives as EGFR/HER2 and DHFR inhibitors: Synthesis, molecular modeling simulations and anticancer activity” (Eur J Med Chem, 2022).

Assays:
[1] = system: HCT-116; assay: cells; conditions: Homo sapiens, HCT-116, 72 h
Description: Antiproliferative activity against human HCT-116 cells after 72 hrs by MTT assay

[2] = system: HepG2; assay: cells; conditions: Homo sapiens, HepG2, 72 h
[3] = system: MCF7; assay: cells; conditions: Homo sapiens, MCF7, 72 h
[4] = system: PC-3; assay: Antiproliferative activity against human PC-3 cells after 72 hrs by MTT assay; assay type: functional, cell-based; conditions: PC-3, 72 h
[5] = system: HeLa; assay: Antiproliferative activity against human HeLa cells after 72 hrs by MTT assay; assay type: functional, cell-based
[6] = molecular target: Receptor tyrosine-protein kinase erbB-2 (Homo sapiens, UniProt P04626); assay: Inhibition of recombinant human HER2 incubated for 40 to 45 mins and measured after 15 mins by Kinase-Glo Max assay
[7] = molecular target: Epidermal growth factor receptor (Homo sapiens, UniProt P00533)
Description: Inhibition of recombinant human EGFR incubated for 40 to 45 mins and measured after 15 mins by Kinase-Glo Max assay

[8] = molecular target: T1, Dihydrofolate reductase (Homo sapiens, UniProt P00374); assay: Inhibition of recombinant human DHFR expressed in Escherichia coli incubated for 15 mins and measured by ELISA
T1 sequence (P00374 whole entry): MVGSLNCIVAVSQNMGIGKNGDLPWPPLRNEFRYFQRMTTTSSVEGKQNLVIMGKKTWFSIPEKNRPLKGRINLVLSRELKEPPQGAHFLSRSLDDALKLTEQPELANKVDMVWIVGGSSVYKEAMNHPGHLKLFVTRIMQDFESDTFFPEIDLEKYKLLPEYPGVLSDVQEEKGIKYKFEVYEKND

[9] = system: WI-38; assay: Antiproliferative activity against human WI-38 cells after 72 hrs by MTT assay; assay type: functional, cell-based; conditions: WI-38, 72 h

Chain of Epidermal growth factor receptor (P00533 whole entry): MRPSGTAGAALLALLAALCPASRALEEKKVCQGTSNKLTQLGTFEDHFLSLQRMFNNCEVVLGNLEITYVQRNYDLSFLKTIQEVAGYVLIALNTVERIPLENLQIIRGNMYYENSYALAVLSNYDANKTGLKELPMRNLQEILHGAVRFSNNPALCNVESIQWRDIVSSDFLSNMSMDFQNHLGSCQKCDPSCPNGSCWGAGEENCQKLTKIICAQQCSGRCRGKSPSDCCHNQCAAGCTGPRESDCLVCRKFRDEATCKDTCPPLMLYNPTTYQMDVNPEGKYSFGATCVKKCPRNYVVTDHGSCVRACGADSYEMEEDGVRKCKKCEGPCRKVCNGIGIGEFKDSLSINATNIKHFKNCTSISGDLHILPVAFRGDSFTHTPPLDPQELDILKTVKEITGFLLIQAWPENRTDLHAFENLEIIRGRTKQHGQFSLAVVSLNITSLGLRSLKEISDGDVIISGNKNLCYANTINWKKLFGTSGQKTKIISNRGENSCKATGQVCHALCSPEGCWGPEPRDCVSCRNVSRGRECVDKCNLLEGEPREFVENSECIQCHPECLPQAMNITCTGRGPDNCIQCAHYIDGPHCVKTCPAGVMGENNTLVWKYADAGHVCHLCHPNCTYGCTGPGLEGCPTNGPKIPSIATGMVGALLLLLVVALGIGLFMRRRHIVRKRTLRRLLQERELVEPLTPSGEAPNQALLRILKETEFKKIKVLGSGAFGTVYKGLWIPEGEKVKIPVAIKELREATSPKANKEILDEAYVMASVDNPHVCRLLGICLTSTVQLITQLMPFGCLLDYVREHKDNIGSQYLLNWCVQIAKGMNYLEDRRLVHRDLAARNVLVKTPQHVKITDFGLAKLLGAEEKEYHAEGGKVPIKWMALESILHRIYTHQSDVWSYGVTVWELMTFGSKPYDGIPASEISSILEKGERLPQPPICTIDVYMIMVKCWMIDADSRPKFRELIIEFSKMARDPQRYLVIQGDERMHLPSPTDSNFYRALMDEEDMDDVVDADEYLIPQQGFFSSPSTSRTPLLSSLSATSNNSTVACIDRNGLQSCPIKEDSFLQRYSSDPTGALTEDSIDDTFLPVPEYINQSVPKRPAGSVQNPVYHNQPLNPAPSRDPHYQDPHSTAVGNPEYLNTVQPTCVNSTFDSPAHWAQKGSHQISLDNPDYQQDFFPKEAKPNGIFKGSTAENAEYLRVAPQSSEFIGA
Chain of Receptor tyrosine-protein kinase erbB-2 (P04626 whole entry): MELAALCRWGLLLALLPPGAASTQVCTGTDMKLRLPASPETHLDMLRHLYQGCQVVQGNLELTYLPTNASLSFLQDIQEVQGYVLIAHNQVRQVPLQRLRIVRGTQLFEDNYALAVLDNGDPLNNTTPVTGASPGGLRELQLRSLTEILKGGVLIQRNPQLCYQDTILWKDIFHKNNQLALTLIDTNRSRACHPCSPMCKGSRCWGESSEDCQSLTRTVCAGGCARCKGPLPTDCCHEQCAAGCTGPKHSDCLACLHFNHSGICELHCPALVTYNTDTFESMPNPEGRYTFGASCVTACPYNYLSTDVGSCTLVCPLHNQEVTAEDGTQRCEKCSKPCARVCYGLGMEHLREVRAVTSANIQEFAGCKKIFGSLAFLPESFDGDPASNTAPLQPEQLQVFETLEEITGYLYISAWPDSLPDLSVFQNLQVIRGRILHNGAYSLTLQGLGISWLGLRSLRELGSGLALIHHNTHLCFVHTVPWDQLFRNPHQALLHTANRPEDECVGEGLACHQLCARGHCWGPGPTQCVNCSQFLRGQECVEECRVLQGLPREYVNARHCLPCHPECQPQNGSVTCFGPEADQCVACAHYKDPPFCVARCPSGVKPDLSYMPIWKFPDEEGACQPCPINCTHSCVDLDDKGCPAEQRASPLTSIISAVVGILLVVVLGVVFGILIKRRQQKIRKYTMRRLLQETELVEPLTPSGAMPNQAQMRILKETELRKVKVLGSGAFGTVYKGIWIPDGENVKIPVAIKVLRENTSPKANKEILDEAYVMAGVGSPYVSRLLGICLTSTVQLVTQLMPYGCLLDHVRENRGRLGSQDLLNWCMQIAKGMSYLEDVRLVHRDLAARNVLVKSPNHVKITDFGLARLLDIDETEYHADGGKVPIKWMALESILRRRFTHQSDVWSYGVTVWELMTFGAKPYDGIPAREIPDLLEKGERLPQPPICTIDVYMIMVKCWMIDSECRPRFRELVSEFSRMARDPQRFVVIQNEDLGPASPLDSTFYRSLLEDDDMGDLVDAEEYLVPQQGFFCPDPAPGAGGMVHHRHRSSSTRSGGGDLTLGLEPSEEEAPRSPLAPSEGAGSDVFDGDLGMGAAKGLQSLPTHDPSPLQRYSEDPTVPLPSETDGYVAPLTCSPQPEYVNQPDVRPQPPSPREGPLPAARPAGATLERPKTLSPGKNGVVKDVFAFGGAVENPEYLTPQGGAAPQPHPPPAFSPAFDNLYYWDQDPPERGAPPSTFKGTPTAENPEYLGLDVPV

Compound	IC50 [1] [µM]	IC50 [2] [µM]	IC50 [3] [µM]	IC50 [4] [µM]	IC50 [5] [µM]	IC50 [6] [µM]	IC50 [7] [µM]	IC50 [8] [µM]	IC50 [9] [µM]
CC(=O)NNC(=O)c1csc2nc(CN3CCOCC3)c(-c3ccc(Br)cc3)n12	22	14.1	19.1	29.3	13.6	–	–	–	–
COc1ccc(-c2c(CN3CCOCC3)nc3scc(C(=O)NNC(C)=O)n23)cc1	29.9	23.7	11.3	34.8	18.9	–	–	–	–
COc1ccc(NC(=S)Nc2nc(C(=O)NCCCc3ccccc3)cs2)cc1	44.8	71.3	63.8	74.5	57.5	–	–	–	–
NNC(=O)c1csc2nc(CN3CCOCC3)c(-c3ccc(Br)cc3)n12	17.9	5.81	6.18	21.9	3.65	0.121	0.419	3.28	49.8
CCOC(=O)c1csc2nc(CN3CCN(C)CC3)c(-c3ccc(OC)cc3)n12	44.6	68.4	32.8	69.4	35.1	–	–	–	–
COc1ccc(NC(=S)Nc2nc(C(=O)NCc3ccccc3)cs2)cc1	18.2	28.1	24.6	39.3	22.9	–	–	–	–
CCOC(=O)c1csc2nc(CN3CCOCC3)c(-c3ccc(Br)cc3)n12	28.5	32.5	24.6	35.2	20.8	–	–	–	–
O=C(O)c1csc2nc(CN3CCCCC3)c(-c3ccc(Br)cc3)n12	> 100	> 100	87.5	> 100	76.6	–	–	–	–
CCOC(=O)c1csc2nc(CN3CCN(Cc4ccccc4)CC3)c(-c3ccc(C)cc3)n12	47.8	88.2	29.1	> 100	38.8	–	–	–	–
CCOC(=O)c1csc2nc(CN3CCOCC3)c(-c3ccc(OC)cc3)n12	25.8	19.8	13.9	22.6	16.4	–	–	–	–
CCCC(=O)NNC(=O)c1csc2nc(CN3CCOCC3)c(-c3ccc(OC)cc3)n12	68.7	81.2	72.4	88.5	53.7	–	–	–	–
CCC(=O)NNC(=O)c1csc2ncc(-c3ccc(C)cc3)n12	9.23	7.34	5.19	18.5	13	0.244	0.45	5.67	67.2
CCCC(=O)NNC(=O)c1csc2nc(CN3CCOCC3)c(-c3ccc(C)cc3)n12	77.5	92.4	89.3	> 100	67.9	–	–	–	–
CCOC(=O)c1csc2nc(CN3CCOCC3)c(-c3ccc(C)cc3)n12	32.6	39	43.6	47.1	24.8	–	–	–	–
Cc1ccc(-c2c(CN3CCCCC3)nc3scc(C(=O)O)n23)cc1	13.8	10.8	8.29	16.6	7.63	0.146	0.18	0.907	> 100
CC(=O)NNC(=O)c1csc2ncc(-c3ccc(C)cc3)n12	71.8	63.6	57.3	92.7	74.2	–	–	–	–
CCC(=O)NNC(=O)c1csc2ncc(-c3ccc(Br)cc3)n12	25.3	19.2	15	43.7	23.1	–	–	–	–
CCOC(=O)c1csc2nc(CN3CCN(Cc4ccccc4)CC3)c(-c3ccc(Br)cc3)n12	37.2	47.3	51.4	56.4	29.5	–	–	–	–
CCC(=O)NNC(=O)c1csc2nc(CN3CCOCC3)c(-c3ccc(Br)cc3)n12	34.1	31.2	25.4	42.7	27	–	–	–	–
CNC(=O)c1cc(Oc2ccc(NC(=O)Nc3ccc(Cl)c(C(F)(F)F)c3)cc2)ccn1 [SORAFENIB]	–	–	–	11.5	–	–	–	–	–

Compound	IC50 [1] [µM]	IC50 [2] [µM]	IC50 [3] [µM]	IC50 [4] [µM]	IC50 [5] [µM]	IC50 [6] [µM]	IC50 [7] [µM]	IC50 [8] [µM]	IC50 [9] [µM]
CCCC(=O)NNC(=O)c1csc2ncc(-c3ccc(C)cc3)n12	34.5	26.8	41.7	53.5	45.6	–	–	–	–
CCC(=O)NNC(=O)c1csc2nc(CN3CCOCC3)c(-c3ccc(OC)cc3)n12	59.3	55.9	64.1	73.9	44.2	–	–	–	–
CCOC(=O)c1csc2nc(CN3CCN(C)CC3)c(-c3ccc(C)cc3)n12	61	53.6	58.3	65	43.9	–	–	–	–
CCCC(=O)NNC(=O)c1csc2ncc(-c3ccc(OC)cc3)n12	59.1	38	32.8	66.4	43.3	–	–	–	–
CC(=O)NNC(=O)c1csc2nc(CN3CCOCC3)c(-c3ccc(C)cc3)n12	54.6	43	50.8	61.3	35.3	–	–	–	–
COc1ccc(-c2cnc3scc(C(=O)NNC(C)=O)n23)cc1	17	11.8	8.36	28.3	17.9	–	–	–	–
CCOC(=O)c1csc2nc(CN3CCN(C)CC3)c(-c3ccc(Br)cc3)n12	93.6	82.7	68.5	85	55.4	–	–	–	–
O=C(NCCc1ccccc1)c1csc(NC(=S)Nc2ccc(Cl)cc2)n1	29.7	11.8	17.2	33.8	30.4	–	–	–	–
O=C(NCCCc1ccccc1)c1csc(NC(=S)Nc2ccc(Cl)cc2)n1	36.6	53.1	45.1	42.4	32.2	–	–	–	–
CCC(=O)NNC(=O)c1csc2ncc(-c3ccc(OC)cc3)n12	64.3	45.8	53.2	79.8	56.2	–	–	–	–
CCC(=O)NNC(=O)c1csc2nc(CN3CCOCC3)c(-c3ccc(C)cc3)n12	64.5	69.2	58.2	79.1	48.4	–	–	–	–
O=C(NCc1ccccc1)c1csc(NC(=S)Nc2ccc(Cl)cc2)n1	62.1	40.3	56.5	51.3	76	–	–	–	–
CCCC(=O)NNC(=O)c1csc2ncc(-c3ccc(Br)cc3)n12	50.3	33.6	27.5	58.5	31.9	–	–	–	–
CCOC(=O)c1csc2nc(CN3CCN(Cc4ccccc4)CC3)c(-c3ccc(OC)cc3)n12	19.6	26.4	17.1	29.4	9.94	–	–	–	–
Cc1ccc(-c2c(CN3CCOCC3)nc3scc(C(=O)NN)n23)cc1	13.2	9.67	8.46	11.2	6.9	0.357	0.246	0.123	89.6
COc1ccc(-c2c(CN3CCCCC3)nc3scc(C(=O)O)n23)cc1	84.6	75	62.9	73.1	47.4	–	–	–	–
COc1ccc(NC(=S)Nc2nc(C(=O)NCCc3ccccc3)cs2)cc1	8.13	19.5	10.6	25.1	14.8	–	–	–	–
CN(Cc1cnc2nc(N)nc(N)c2n1)c1ccc(C(=O)N[C@@H](CCC(=O)O)C(=O)O)cc1 [METHOTREXATE]	9.25	21.9	25.3	28.8	13.7	–	–	–	–
CCCC(=O)NNC(=O)c1csc2nc(CN3CCOCC3)c(-c3ccc(Br)cc3)n12	46.8	38.4	35.9	52.9	29.2	–	–	–	–
